For 25 compounds, EC50 results are on record in patent US8299086B2, “Pyrimidine derivatives” (Actelion Pharmaceuticals Ltd., priority 2007, dated 2012).

In this experiment the target is recombinant human S1P1 receptor (Homo sapiens, UniProt P21453). Kind of experiment: GTPγS assay to determine EC50 values. Format: biochemical. To be noted: 35S-GTPγS binding, membranes of CHO cells expressing recombinant human S1P1 receptor, pH 7.4. The method, then: GTPγS assay to determine EC50 values
recombinant human S1P1 receptor, sequence (P21453 whole entry): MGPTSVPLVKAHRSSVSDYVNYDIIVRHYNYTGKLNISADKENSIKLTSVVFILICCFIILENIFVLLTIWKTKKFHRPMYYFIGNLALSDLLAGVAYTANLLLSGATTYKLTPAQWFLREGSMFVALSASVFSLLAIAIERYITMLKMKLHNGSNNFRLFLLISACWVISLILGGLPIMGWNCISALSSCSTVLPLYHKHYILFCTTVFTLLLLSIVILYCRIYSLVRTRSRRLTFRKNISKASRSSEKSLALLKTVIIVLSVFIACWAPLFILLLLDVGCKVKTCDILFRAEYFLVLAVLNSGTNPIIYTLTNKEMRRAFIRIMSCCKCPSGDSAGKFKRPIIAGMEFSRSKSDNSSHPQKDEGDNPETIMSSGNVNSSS
GTPγS binding assays are performed in 96 well microtiter plates (Nunc, 442587) in a final volume of 200 μl, using membrane preparations of CHO cells expressing recombinant human S1P1 receptor. Assay conditions are 20 mM Hepes (Fluka, 54461), 100 mM NaCl (Fluka, 71378), 5 mM MgCl2 (Fluka, 63064), 0.1% BSA (Calbiochem, 126609), 1 μM GDP (Sigma, G-7127), 2.5% DMSO (Fluka, 41644), […] ^35S-GTPγS (Amersham Biosciences, SJ1320). The pH is 7.4. Test compounds are dissolved and diluted in 100% DMSO and pre-incubated at room temperature for 30 min in 150 μl of the above assay buffer, in the absence of ^35S-GTPγS. After addition of 50 μl of ^35S-GTPγS, the assay is incubated for 1 h at rt. The assay is terminated by transfer of the reaction mixture to a Multiscreen plate (Millipore, MAHFC1H60) using a cell harvester from Packard Biosciences, and the plates are washed with ice-cold 10 mM Na2HPO4/NaH2PO4 (70%/30%), dried, sealed at the bottom and, after addition of 25 μl MicroScint20 (Packard Biosciences, order#6013621), sealed on the top. Membrane-bound ^35S-GTPγS is measured with a TopCount from Packard Biosciences.
EC50 is the concentration of agonist inducing 50% of the maximal specific ^35S-GTPγS binding. Specific binding is determined by subtracting non-specific binding from maximal binding. Maximal binding is the amount of cpm bound to the Multiscreen plate in the presence of 10 μM of S1P. Non-specific binding is the amount of binding in the absence of an agonist in the assay.
Usually EC50 stands for the midpoint of the concentration-response curve. Regarding `CCNc1nc(C)cc(-c2nc(-c3cc(C)c(OCC(O)CNC(=O)CO)c(C)c3)no2)n1` (racemic) [Example 4, rac-N-(3-{4-[5-(2-Ethylamino-6-methyl-pyrimidin-4-yl)-[1,2,4]oxadiazol-3-yl]-2,6-dimethyl-phenoxy}-2-hydroxy-propyl)-2-hydroxy-acetamide], the EC50 stood at 0.46 nM.
`Cc1cc(-c2nc(-c3cc(C)c(OCC(O)CNC(=O)CO)c(C)c3)no2)nc(NC(C)C)n1` (racemic) [Example 7, rac-N-(3-{4-[5-(2-Isopropylamino-6-methyl-pyrimidin-4-yl)-[1,2,4]oxadiazol-3-yl]-2,6-dimethyl-phenoxy}-2-hydroxy-propyl)-2-hydroxy-acetamide]: the EC50 was 0.88 nM.
As for `CCCOc1nc(C)cc(-c2nc(-c3cc(C)c(OCC(O)CNC(=O)CO)c(C)c3)no2)n1` (racemic) [Example 14, rac-N-(3-{4-[5-(6-Methyl-2-propoxy-pyrimidin-4-yl)-[1,2,4]oxadiazol-3-yl]-2,6-dimethyl-phenoxy}-2-hydroxy-propyl)-2-hydroxy-acetamide], the EC50 is 26 nM.
As for `Cc1cc(-c2nc(-c3cc(C)c(OCC(O)CO)c(C)c3)no2)nc(NC(C)C)n1` (racemic) [Example 19, rac-3-{4-[5-(2-Isopropylamino-6-methyl-pyrimidin-4-yl)-[1,2,4]oxadiazol-3-yl]-2,6-dimethyl-phenoxy}-propane-1,2-diol], the EC50 was 2.27 nM.
For the compound `Cc1cc(-c2nc(-c3ccc(C(O)CN)cc3)no2)nc(NC(C)C)n1` (racemic) [Example 144, rac-2-Amino-1-{4-[5-(2-isopropylamino-6-methyl-pyrimidin-4-yl)-[1,2,4]oxadiazol-3-yl]-phenyl}-ethanol], the EC50 was 80.3 nM.
Then `Cc1cc(-c2nc(-c3ccc(CC(O)CO)cc3)no2)nc(NC(C)C)n1` (racemic) [Example 149, rac-3-{4-[5-(2-Isopropylamino-6-methyl-pyrimidin-4-yl)-[1,2,4]oxadiazol-3-yl]-phenyl}-propane-1,2-diol], with 25 nM; and `CCc1cc(-c2noc(-c3cc(C)nc(NCC(C)C)n3)n2)cc(C)c1OC[C@@H](O)CNC(=O)CO` [Example 2, N—((S)-3-{2-Ethyl-4-[5-(2-isobutylamino-6-methyl-pyrimidin-4-yl)-[1,2,4]oxadiazol-3-yl]-6-methyl-phenoxy}-2-hydroxy-propyl)-2-hydroxy-acetamide], with 1.2 nM.
`CCc1cc(-c2noc(-c3cc(C)nc(NC4CC4)n3)n2)cc(C)c1OC[C@@H](O)CNC(=O)CO` [Example 31, N—((S)-3-{4-[5-(2-cyclopropylamino-6-methyl-pyrimidin-4-yl)-[1,2,4]oxadiazol-3-yl]-2-ethyl-6-methyl-phenoxy}-2-hydroxy-propyl)-2-hydroxy-acetamide]: the EC50 stood at 0.17 nM.
Consider `CCc1cc(-c2noc(-c3cc(CC(C)C)nc(NC)n3)n2)cc(C)c1OC[C@@H](O)CNC(=O)CO` [Example 35, N—((S)-3-{2-ethyl-4-[5-(6-isobutyl-2-methylamino-pyrimidin-4-yl)-[1,2,4]oxadiazol-3-yl]-6-methyl-phenoxy}-2-hydroxy-propyl)-2-hydroxy-acetamide], for which the EC50 is 1.37 nM.
As for `CCOc1nc(CC)cc(-c2nc(-c3cc(C)c(OC[C@@H](O)CNC(=O)CO)c(CC)c3)no2)n1` [Example 41, N—((S)-3-{4-[5-(2-ethoxy-6-ethyl-pyrimidin-4-yl)-[1,2,4]oxadiazol-3-yl]-2-ethyl-6-methyl-phenoxy}-2-hydroxy-propyl)-2-hydroxy-acetamide], the EC50 worked out at 4.5 nM.
On to `CCc1cc(-c2noc(-c3cc(CC(C)C)nc(OC)n3)n2)cc(C)c1OC[C@@H](O)CNC(=O)CO` [Example 43, N—((S)-3-{2-ethyl-4-[5-(6-isobutyl-2-methoxy-pyrimidin-4-yl)-[1,2,4]oxadiazol-3-yl]-6-methyl-phenoxy}-2-hydroxy-propyl)-2-hydroxy-acetamide], for which the EC50 amounted to 0.97 nM.
Turning to `Cc1cc(-c2nc(-c3cc(C)c(OC[C@@H](O)CNC(=O)CO)c(C)c3)no2)nc(OCC(C)C)n1` [Example 46], the EC50 was found to be 3.7 nM.
For the compound `Cc1cc(-c2nc(-c3cc(C)c(OC[C@@H](O)CNC(=O)CO)c(Cl)c3)no2)nc(OC(C)C)n1` [Example 54, N—((S)-3-{2-chloro-4-[5-(2-isopropoxy-6-methyl-pyrimidin-4-yl)-[1,2,4]oxadiazol-3-yl]-6-methyl-phenoxy}-2-hydroxy-propyl)-2-hydroxy-acetamide], the EC50 turned out to be 1 nM.
`CCc1cc(-c2noc(-c3cc(C)nc(NC4CC4)n3)n2)cc(C)c1OC[C@@H](O)CO` [Example 63, (S)-3-{4-[5-(2-cyclopropylamino-6-methyl-pyrimidin-4-yl)-[1,2,4]oxadiazol-3-yl]-2-ethyl-6-methyl-phenoxy}-propane-1,2-diol]: the EC50 came to 0.25 nM.
Turning to `COc1cc(-c2noc(-c3cc(C)nc(NC(C)C)n3)n2)cc(C)c1OC[C@@H](O)CO` [Example 78, (S)-3-{4-[5-(2-isopropylamino-6-methyl-pyrimidin-4-yl)-[1,2,4]oxadiazol-3-yl]-2-methoxy-6-methyl-phenoxy}-propane-1,2-diol], the EC50 was found to be 5.8 nM.
Then `Cc1cc(-c2nc(-c3cc(C)c(OC[C@@H](O)CO)c(Cl)c3)no2)nc(OC(C)C)n1` [Example 81, (S)-3-{2-chloro-4-[5-(2-isopropoxy-6-methyl-pyrimidin-4-yl)-[1,2,4]oxadiazol-3-yl]-6-methyl-phenoxy}-propane-1,2-diol], with 7.4 nM.
As for `CCc1cc(-c2nc(-c3cc(C)nc(N(C)CC(C)C)n3)no2)cc(C)c1OC[C@@H](O)CNC(=O)CO` [Example 86, (S)—N-[3-(2-Ethyl-4-{3-[2-(isobutyl-methyl-amino)-6-methyl-pyrimidin-4-yl]-[1,2,4]oxadiazol-5-yl}-6-methyl-phenoxy)-2-hydroxy-propyl]-2-hydroxy-acetamide], the half-maximal effective concentration (EC50) was determined as 5.7 nM.
On to `CCc1cc(-c2nnc(-c3cc(C)nc(OC(C)C)n3)o2)cc(C)c1OC[C@@H](O)CNC(=O)CO` [Example 89], for which the EC50 turned out to be 39.4 nM.
As for `CCc1cc(-c2nnc(-c3cc(C)nc(OCC(C)C)n3)s2)cc(C)c1OC[C@@H](O)CO` [Example 99], the EC50 amounted to 3730 nM.
As for `CCc1cc(-c2noc(-c3cc(C)nc(N(CC)CC)n3)n2)cc(C)c1OC(CO)CO` [Example 100, 2-{4-[5-(2-Diethylamino-6-methyl-pyrimidin-4-yl)-[1,2,4]oxadiazol-3-yl]-2-ethyl-6-methyl-phenoxy}-propane-1,3-diol], the EC50 was 5.1 nM.
`CCc1cc(-c2noc(-c3cc(C)nc(N(CC)CC)n3)n2)cc(C)c1OCCNCCO` [Example 103]: the EC50 was determined as 72.1 nM.
As for `CCc1cc(-c2noc(-c3cc(C)nc(N(CC)CC)n3)n2)cc(C)c1OCCN1CCC(C(=O)O)C1` (stereo not shown) [Example 109], the concentration for a half-maximal effect (EC50) turned out to be 8.4 nM.
For the compound `CCc1cc(-c2noc(-c3cc(C)nc(N(CC)CC)n3)n2)cc(C)c1OCCNC(=O)CN` [Example 112], the EC50 came out at 12.5 nM.
Consider `CCc1cc(-c2noc(-c3cc(C)nc(N(CC)CC)n3)n2)cc(C)c1OC[C@@H](O)CNS(=O)(=O)CC` [Example 117], for which the EC50 was 22.3 nM.
Consider `CCc1cc(-c2noc(-c3cc(C)nc(N(CC)CC)n3)n2)cc(C)c1OC[C@@H](O)CNCCC(=O)O` [Example 126, 3-((S)-3-{4-[5-(2-diethylamino-6-methyl-pyrimidin-4-yl)-[1,2,4]oxadiazol-3-yl]-2-ethyl-6-methyl-phenoxy}-2-hydroxy-propylamino)-propionic acid], for which the EC50 came out at 1.4 nM.
